Reference: patent US9969694B2, “N-(arylalkyl)-N′-pyrazolyl-urea, thiourea, guanidine and cyanoguanidine compounds as TrkA kinase inhibitors” (Array BioPharma Inc., priority 2012, dated 2018)

Assays:
Assay in all cases: Off-Target Kinase Profiling
Format in all cases: biochemical
Details in all cases: 10 μM; ATP near Km
ARK5 = target: T1, ARK5 (Homo sapiens, UniProt O60285)
T1 construct: purchased Millipore (KinaseProfiler service)
Experimental: (§1) Representative compounds of the invention (Examples 33 and 10) were tested for off-target kinase activity at a concentration of 10 μM by Millipore, Inc. in their KinaseProfiler™ service against all the kinases available in their full kinase panel. Compounds were run in duplicate at a concentration of ATP near the Km for each individual kinase according to Millipore's specifications. The results are shown in Table B. Data are reported as percent of control (POC) and are the average of the two replicates.

CAMK1 = target: T2, CAMK1 (Homo sapiens, UniProt Q14012)
T2 construct: purchased Millipore (KinaseProfiler service)
Experimental: as §1

CAMK2b = target: T3, CAMK2b (Homo sapiens, UniProt Q13554)
T3 construct: purchased Millipore (KinaseProfiler service)
Experimental: as §1

CAMK2d = target: T4, CAMK2d (Homo sapiens, UniProt Q13557)
T4 construct: purchased Millipore (KinaseProfiler service)
Experimental: as §1

CHK1 = target: T5, CHK1 (Homo sapiens, UniProt O14757)
T5 construct: purchased Millipore, Inc. (KinaseProfiler service)
Experimental: as §1

CK1gamma2 = target: T6, CK1gamma2 (Homo sapiens, UniProt P78368)
T6 construct: purchased Millipore, Inc. (KinaseProfiler service)
Experimental: as §1

CK2 = target: T7, CK2 (Homo sapiens, UniProt P68400)
T7 construct: purchased Millipore, Inc. (KinaseProfiler service)
Experimental: as §1

DAPK1 = target: T8, DAPK1 (Homo sapiens, UniProt P53355)
T8 construct: purchased Millipore, Inc. (KinaseProfiler service)
Experimental: as §1

DAPK3 = target: T9, DAPK3 (Homo sapiens, UniProt O43293)
T9 construct: purchased Millipore, Inc. (KinaseProfiler service)
Experimental: as §1

DDR2 = target: T10, DDR2 (Homo sapiens, UniProt Q16832)
T10 construct: purchased Millipore, Inc. (KinaseProfiler service)
Experimental: as §1

EGFR = target: T11, EGFR (Homo sapiens, UniProt P00533)
T11 construct: purchased Millipore, Inc. (KinaseProfiler service)
T11 sequence (P00533 25-1210): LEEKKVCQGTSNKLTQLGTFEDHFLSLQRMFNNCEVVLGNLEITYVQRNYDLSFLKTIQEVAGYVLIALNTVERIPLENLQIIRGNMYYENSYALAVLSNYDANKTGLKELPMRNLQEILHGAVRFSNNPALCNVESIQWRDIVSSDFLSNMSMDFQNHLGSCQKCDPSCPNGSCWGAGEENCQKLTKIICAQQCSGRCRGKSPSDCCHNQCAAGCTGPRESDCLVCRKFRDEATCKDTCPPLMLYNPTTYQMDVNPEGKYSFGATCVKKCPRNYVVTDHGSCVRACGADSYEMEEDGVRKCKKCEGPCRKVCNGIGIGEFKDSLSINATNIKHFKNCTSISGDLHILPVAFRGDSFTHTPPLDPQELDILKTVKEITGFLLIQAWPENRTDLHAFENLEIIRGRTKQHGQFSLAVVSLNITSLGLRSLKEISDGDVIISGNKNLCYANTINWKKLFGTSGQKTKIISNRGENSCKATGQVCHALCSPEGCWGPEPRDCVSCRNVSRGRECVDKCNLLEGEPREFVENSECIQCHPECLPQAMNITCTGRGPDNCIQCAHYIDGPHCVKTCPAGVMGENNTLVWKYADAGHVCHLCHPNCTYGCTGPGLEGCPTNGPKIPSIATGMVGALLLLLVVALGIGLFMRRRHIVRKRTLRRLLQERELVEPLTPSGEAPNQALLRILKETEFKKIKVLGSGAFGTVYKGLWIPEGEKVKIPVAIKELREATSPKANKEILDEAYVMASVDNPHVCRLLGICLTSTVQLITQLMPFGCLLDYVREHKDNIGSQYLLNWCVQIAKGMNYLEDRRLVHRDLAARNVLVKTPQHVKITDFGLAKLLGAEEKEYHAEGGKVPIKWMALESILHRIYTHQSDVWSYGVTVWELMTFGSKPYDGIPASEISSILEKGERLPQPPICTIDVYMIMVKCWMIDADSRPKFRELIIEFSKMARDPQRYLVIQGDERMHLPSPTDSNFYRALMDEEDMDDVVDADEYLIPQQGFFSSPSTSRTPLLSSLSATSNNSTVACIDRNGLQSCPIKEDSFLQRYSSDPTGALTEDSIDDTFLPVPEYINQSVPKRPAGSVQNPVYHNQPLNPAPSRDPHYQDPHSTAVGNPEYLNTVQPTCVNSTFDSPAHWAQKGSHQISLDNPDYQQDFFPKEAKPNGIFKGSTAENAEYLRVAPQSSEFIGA
Experimental: as §1

ERK2 = target: T12, ERK2 (Homo sapiens, UniProt P28482)
T12 construct: purchased Millipore, Inc. (KinaseProfiler service)
Experimental: as §1

EphA4 = target: T13, EphA4 (Homo sapiens, UniProt P54764)
T13 construct: purchased Millipore, Inc. (KinaseProfiler service)
T13 sequence (P54764 20-986): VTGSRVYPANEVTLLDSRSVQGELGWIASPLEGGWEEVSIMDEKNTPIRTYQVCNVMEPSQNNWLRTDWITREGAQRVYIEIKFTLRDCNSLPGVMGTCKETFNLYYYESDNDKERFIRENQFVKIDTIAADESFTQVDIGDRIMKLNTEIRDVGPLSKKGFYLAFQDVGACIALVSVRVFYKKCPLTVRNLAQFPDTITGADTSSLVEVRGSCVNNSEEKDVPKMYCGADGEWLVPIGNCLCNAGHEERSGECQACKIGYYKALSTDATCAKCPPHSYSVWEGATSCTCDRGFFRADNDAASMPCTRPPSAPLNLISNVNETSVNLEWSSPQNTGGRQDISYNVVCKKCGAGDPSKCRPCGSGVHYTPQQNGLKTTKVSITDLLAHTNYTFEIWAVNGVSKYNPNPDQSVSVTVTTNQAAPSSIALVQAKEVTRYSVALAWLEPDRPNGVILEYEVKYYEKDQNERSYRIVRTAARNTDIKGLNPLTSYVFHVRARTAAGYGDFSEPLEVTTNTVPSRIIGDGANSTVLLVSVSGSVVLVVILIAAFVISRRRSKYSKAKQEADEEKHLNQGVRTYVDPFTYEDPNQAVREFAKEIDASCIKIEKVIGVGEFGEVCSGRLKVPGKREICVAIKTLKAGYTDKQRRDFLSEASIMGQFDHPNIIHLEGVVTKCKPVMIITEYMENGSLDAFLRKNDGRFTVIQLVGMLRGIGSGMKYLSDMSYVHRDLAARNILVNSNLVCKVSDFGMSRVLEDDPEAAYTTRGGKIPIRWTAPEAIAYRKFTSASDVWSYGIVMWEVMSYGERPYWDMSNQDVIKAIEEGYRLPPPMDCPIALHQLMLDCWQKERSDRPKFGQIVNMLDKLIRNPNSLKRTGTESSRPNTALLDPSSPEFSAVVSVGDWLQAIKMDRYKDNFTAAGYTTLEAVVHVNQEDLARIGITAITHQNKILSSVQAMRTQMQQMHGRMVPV
Experimental: as §1

EphA8 = target: T14, EphA8 (Homo sapiens, UniProt P29322)
T14 construct: purchased Millipore, Inc. (KinaseProfiler service)
T14 sequence (P29322 28-1005): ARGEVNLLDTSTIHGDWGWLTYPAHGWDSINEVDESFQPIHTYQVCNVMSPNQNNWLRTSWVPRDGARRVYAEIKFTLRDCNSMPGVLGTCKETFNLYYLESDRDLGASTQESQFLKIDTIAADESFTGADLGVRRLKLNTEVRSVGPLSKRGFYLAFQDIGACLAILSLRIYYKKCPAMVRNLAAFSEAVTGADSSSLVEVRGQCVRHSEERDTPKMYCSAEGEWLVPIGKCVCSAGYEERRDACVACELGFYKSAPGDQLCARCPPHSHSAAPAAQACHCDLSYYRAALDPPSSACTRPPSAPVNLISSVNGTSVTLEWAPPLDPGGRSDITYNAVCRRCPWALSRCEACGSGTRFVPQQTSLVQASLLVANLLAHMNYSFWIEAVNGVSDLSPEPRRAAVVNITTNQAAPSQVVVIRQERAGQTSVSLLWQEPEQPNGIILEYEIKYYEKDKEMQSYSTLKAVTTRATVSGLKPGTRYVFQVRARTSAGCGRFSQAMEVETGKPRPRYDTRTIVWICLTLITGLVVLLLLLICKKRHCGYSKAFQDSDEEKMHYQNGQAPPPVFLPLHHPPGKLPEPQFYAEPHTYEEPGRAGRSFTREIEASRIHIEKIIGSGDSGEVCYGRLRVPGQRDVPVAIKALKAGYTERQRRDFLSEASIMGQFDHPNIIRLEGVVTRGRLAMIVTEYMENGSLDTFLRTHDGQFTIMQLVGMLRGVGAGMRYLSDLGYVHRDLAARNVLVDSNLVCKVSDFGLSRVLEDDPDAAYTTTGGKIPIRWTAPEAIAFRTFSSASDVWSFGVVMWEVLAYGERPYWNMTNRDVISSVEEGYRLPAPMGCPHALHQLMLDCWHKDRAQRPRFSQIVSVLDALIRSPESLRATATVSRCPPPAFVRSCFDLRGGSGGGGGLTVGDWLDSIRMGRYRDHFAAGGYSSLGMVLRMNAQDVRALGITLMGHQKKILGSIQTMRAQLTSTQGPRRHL
Experimental: as §1

EphB1 = target: T15, EphB1 (Homo sapiens, UniProt P54762)
T15 construct: purchased Millipore, Inc. (KinaseProfiler service)
Experimental: as §1

FAK = target: T16, FAK (Homo sapiens, UniProt Q05397)
T16 construct: purchased Millipore, Inc. (KinaseProfiler service)
T16 sequence (Q05397 whole entry): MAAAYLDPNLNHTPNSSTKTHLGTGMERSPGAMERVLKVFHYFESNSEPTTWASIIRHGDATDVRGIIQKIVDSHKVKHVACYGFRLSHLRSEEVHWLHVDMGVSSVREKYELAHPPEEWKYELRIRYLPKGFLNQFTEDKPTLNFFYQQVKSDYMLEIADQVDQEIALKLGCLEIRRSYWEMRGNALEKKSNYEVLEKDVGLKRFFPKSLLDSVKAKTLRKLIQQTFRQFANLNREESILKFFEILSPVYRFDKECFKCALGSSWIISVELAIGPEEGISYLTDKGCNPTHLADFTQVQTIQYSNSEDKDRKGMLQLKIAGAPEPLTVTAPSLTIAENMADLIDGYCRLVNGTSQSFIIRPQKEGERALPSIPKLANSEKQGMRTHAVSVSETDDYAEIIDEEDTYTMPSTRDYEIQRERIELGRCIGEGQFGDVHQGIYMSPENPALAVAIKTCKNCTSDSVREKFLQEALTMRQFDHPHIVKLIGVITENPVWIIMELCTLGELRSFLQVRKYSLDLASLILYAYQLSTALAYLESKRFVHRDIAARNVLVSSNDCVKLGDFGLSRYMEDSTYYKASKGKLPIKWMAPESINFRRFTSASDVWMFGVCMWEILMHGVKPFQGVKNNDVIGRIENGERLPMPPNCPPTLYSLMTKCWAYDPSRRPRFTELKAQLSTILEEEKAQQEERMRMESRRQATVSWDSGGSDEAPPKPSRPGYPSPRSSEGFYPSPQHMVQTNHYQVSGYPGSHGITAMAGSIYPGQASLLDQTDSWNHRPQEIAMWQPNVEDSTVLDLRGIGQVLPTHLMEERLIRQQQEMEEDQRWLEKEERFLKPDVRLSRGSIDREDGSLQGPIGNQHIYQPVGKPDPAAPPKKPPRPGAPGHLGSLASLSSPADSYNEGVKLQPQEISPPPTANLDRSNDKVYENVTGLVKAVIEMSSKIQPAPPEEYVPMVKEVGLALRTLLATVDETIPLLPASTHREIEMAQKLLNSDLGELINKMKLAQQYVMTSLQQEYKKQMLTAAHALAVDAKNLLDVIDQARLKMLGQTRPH
Experimental: as §1

FGFR3 = target: T17, FGFR3 (Homo sapiens, UniProt P22607)
T17 construct: purchased Millipore, Inc. (KinaseProfiler service)
Experimental: as §1

Fgr = target: T18, Fgr (Homo sapiens, UniProt P09769)
T18 construct: purchased Millipore, Inc. (KinaseProfiler service)
Experimental: as §1

Flt4 = target: T19, Flt4 (Homo sapiens, UniProt P35916)
T19 construct: purchased Millipore, Inc. (KinaseProfiler service)
Experimental: as §1

Fyn = target: T20, Fyn (Homo sapiens, UniProt P06241)
T20 construct: purchased Millipore, Inc. (KinaseProfiler service)
Experimental: as §1

HIPK1 = target: T21, HIPK1 (Homo sapiens, UniProt Q86Z02)
T21 construct: purchased Millipore, Inc. (KinaseProfiler service)
Experimental: as §1

JAK2 = target: T22, JAK2 (Homo sapiens, UniProt O60674)
T22 construct: purchased Millipore, Inc. (KinaseProfiler service)
Experimental: as §1

JNK2alpha2 = target: T23, JNK2alpha2 (Homo sapiens, UniProt P45984)
T23 construct: purchased Millipore, Inc. (KinaseProfiler service)
Experimental: as §1

MARK1 = target: T24, MARK1 (Homo sapiens, UniProt Q9P0L2)
T24 construct: purchased Millipore, Inc. (KinaseProfiler service)
Experimental: as §1

MELK = target: T25, MELK (Homo sapiens, UniProt Q14680)
T25 construct: purchased Millipore, Inc. (KinaseProfiler service)
Experimental: as §1

MKNK2 = target: T26, MKNK2 (Homo sapiens, UniProt Q9HBH9)
T26 construct: purchased Millipore, Inc. (KinaseProfiler service)
T26 sequence (Q9HBH9 whole entry): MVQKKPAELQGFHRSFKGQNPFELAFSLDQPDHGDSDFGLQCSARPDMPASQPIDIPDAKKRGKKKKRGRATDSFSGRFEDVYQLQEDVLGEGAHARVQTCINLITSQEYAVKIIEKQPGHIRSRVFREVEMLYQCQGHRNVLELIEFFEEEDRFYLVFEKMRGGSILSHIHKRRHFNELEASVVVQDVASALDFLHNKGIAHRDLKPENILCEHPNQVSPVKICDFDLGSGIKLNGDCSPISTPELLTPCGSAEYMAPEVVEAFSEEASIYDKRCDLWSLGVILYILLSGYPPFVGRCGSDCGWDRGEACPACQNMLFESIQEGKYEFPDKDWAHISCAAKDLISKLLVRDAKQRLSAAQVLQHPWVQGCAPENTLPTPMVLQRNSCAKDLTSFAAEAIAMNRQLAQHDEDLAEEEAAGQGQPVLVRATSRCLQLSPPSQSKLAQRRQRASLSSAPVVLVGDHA
Experimental: as §1

MYLK = target: T27, MYLK (Homo sapiens, UniProt Q15746)
T27 construct: purchased Millipore, Inc. (KinaseProfiler service)
Experimental: as §1

NEK7 = target: T28, NEK7 (Homo sapiens, UniProt Q8TDX7)
T28 construct: purchased Millipore, Inc. (KinaseProfiler service)
Experimental: as §1

PKAC-alpha = target: T29, PKAC-alpha (Homo sapiens, UniProt P17612)
T29 construct: purchased Millipore, Inc. (KinaseProfiler service)
Experimental: as §1

PKCalpha = target: T30, PKCalpha (Homo sapiens, UniProt P17252)
T30 construct: purchased Millipore, Inc. (KinaseProfiler service)
Experimental: as §1

PKD1 = target: T31, PKD1 (Homo sapiens, UniProt Q15139)
T31 construct: purchased Millipore, Inc. (KinaseProfiler service)
Experimental: as §1

PKD2 = target: T32, PKD2 (Homo sapiens, UniProt Q9BZL6)
T32 construct: purchased Millipore, Inc. (KinaseProfiler service)
Experimental: as §1

PRKG1alpha = target: T33, PRKG1alpha (Homo sapiens, UniProt Q13976)
T33 construct: purchased Millipore, Inc. (KinaseProfiler service)
Experimental: as §1

Pim-2 = target: T34, Pim-2 (Homo sapiens, UniProt Q9P1W9)
T34 construct: purchased Millipore, Inc. (KinaseProfiler service)
T34 sequence (Q9P1W9 whole entry): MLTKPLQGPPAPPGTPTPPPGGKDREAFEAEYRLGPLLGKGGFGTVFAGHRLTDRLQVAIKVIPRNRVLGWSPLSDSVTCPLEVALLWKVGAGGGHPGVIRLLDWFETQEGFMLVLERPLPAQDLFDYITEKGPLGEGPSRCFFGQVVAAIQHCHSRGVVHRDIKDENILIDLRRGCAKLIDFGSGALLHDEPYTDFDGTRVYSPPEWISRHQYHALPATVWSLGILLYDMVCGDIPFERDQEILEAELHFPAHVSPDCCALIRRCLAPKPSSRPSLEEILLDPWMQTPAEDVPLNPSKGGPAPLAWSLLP
Experimental: as §1

Ros = target: T35, Ros (Homo sapiens, UniProt P08922)
T35 construct: purchased Millipore, Inc. (KinaseProfiler service)
Experimental: as §1

STK33 = target: T36, STK33 (Homo sapiens, UniProt Q9BYT3)
T36 construct: purchased Millipore, Inc. (KinaseProfiler service)
Experimental: as §1

Syk = target: T37, Syk (Homo sapiens, UniProt P43405)
T37 construct: purchased Millipore, Inc. (KinaseProfiler service)
Experimental: as §1

TAO3 = target: T38, TAO3 (Homo sapiens, UniProt Q9H2K8)
T38 construct: purchased Millipore, Inc. (KinaseProfiler service)
Experimental: as §1

TSSK2 = target: T39, TSSK2 (Homo sapiens, UniProt Q96PF2)
T39 construct: purchased Millipore, Inc. (KinaseProfiler service)
Experimental: as §1

VRK2 = target: T40, VRK2 (Homo sapiens, UniProt Q86Y07)
T40 construct: purchased Millipore, Inc. (KinaseProfiler service)
Experimental: as §1

Yes = target: T41, Yes (Homo sapiens, UniProt P07947)
T41 construct: purchased Millipore, Inc. (KinaseProfiler service)
Experimental: as §1

COCc1ccc(C2CCC2)c(CNC(=O)Nc2c(C)c(-c3cnc(C)nc3)nn2-c2ccccc2)c1 [Example 10, 1-(2-cyclobutyl-5-(methoxymethyl)benzyl)-3-(4-methyl-3-(2-methylpyrimidin-5-yl)-1-phenyl-1H-pyrazol-5-yl)urea]
Avg POC ARK5 (ARK5): 87 POC
Avg POC CAMK1 (CAMK1): 92 POC
Avg POC CAMK2b (CAMK2b): 94 POC
Avg POC CAMK2d (CAMK2d): 126.5 POC
Avg POC CHK1 (CHK1): 102.5 POC
Avg POC CK1gamma2 (CK1gamma2): 69.5 POC
Avg POC CK2 (CK2): 94.5 POC
Avg POC DAPK1 (DAPK1): 98 POC
Avg POC DAPK3 (DAPK3): 93.5 POC
Avg POC DDR2 (DDR2): 105.5 POC
Avg POC EGFR (EGFR): 107.5 POC
Avg POC ERK2 (ERK2): 104 POC
Avg POC EphA4 (EphA4): 105.5 POC
Avg POC EphA8 (EphA8): 97.5 POC
Avg POC EphB1 (EphB1): 131 POC
Avg POC FAK (FAK): 96.5 POC
Avg POC FGFR3 (FGFR3): 104 POC
Avg POC Fgr (Fgr): 97 POC
Avg POC Flt4 (Flt4): 88 POC
Avg POC Fyn (Fyn): 103 POC
Avg POC HIPK1 (HIPK1): 100.5 POC
Avg POC JAK2 (JAK2): 106.5 POC
Avg POC JNK2alpha2 (JNK2alpha2): 81.5 POC
Avg POC MARK1 (MARK1): 97 POC
Avg POC MELK (MELK): 83.5 POC
Avg POC MKNK2 (MKNK2): 98 POC
Avg POC MYLK (MYLK): 88 POC
Avg POC NEK7 (NEK7): 110 POC
Avg POC PKAC-alpha (PKAC-alpha): 132 POC
Avg POC PKCalpha (PKCalpha): 100.5 POC
Avg POC PKD1 (PKD1): 94.5 POC
Avg POC PKD2 (PKD2): 106 POC
Avg POC PRKG1alpha (PRKG1alpha): 113 POC
Avg POC Pim-2 (Pim-2): 118 POC
Avg POC Ros (Ros): 97.5 POC
Avg POC STK33 (STK33): 98 POC
Avg POC Syk (Syk): 79.5 POC
Avg POC TAO3 (TAO3): 88.5 POC
Avg POC TSSK2 (TSSK2): 90 POC
Avg POC VRK2 (VRK2): 90 POC
Avg POC Yes (Yes): 88.5 POC

COCc1ccc(C(F)(F)F)c(CNC(=O)Nc2c(C)c(-c3cnn(C)c3)nn2-c2ccccc2)c1 [Example 33, 1-(1′,4-dimethyl-1-phenyl-1H,1′H-[3,4′-bipyrazol]-5-yl)-3-(5-(methoxymethyl)-2-(trifluoromethyl)benzyl)urea]
Avg POC ARK5 (ARK5): 85.5 POC
Avg POC CAMK1 (CAMK1): 111.5 POC
Avg POC CAMK2b (CAMK2b): 96 POC
Avg POC CAMK2d (CAMK2d): 118 POC
Avg POC CHK1 (CHK1): 97 POC
Avg POC CK1gamma2 (CK1gamma2): 113.5 POC
Avg POC CK2 (CK2): 94.5 POC
Avg POC DAPK1 (DAPK1): 141.5 POC
Avg POC DAPK3 (DAPK3): 113 POC
Avg POC DDR2 (DDR2): 111 POC
Avg POC EGFR (EGFR): 116.5 POC
Avg POC ERK2 (ERK2): 117 POC
Avg POC EphA4 (EphA4): 120 POC
Avg POC EphA8 (EphA8): 123 POC
Avg POC EphB1 (EphB1): 133 POC
Avg POC FAK (FAK): 99 POC
Avg POC FGFR3 (FGFR3): 116 POC
Avg POC Fgr (Fgr): 121 POC
Avg POC Flt4 (Flt4): 94 POC
Avg POC Fyn (Fyn): 113 POC
Avg POC HIPK1 (HIPK1): 115.5 POC
Avg POC JAK2 (JAK2): 130 POC
Avg POC JNK2alpha2 (JNK2alpha2): 89.5 POC
Avg POC MARK1 (MARK1): 109.5 POC
Avg POC MELK (MELK): 114 POC
Avg POC MKNK2 (MKNK2): 101.5 POC
Avg POC MYLK (MYLK): 100.5 POC
Avg POC NEK7 (NEK7): 116.5 POC
Avg POC PKAC-alpha (PKAC-alpha): 139.5 POC
Avg POC PKCalpha (PKCalpha): 104.5 POC
Avg POC PKD1 (PKD1): 94 POC
Avg POC PKD2 (PKD2): 106 POC
Avg POC PRKG1alpha (PRKG1alpha): 122.5 POC
Avg POC Pim-2 (Pim-2): 146 POC
Avg POC Ros (Ros): 100.5 POC
Avg POC STK33 (STK33): 104.5 POC
Avg POC Syk (Syk): 123.5 POC
Avg POC TAO3 (TAO3): 89.5 POC
Avg POC TSSK2 (TSSK2): 131 POC
Avg POC VRK2 (VRK2): 90.5 POC
Avg POC Yes (Yes): 113 POC
